Measurements as given in patent publication US6610675B1 (priority 1980, dated 2003).
Marks after values point to notes of the source that are not given here.

Legend:
Assay type in all cases: in vivo, rat
[1] = system: granulation tissue formation caused by implantation of cotton pellets; test: Granuloma formation test (local cotton pellet granuloma assay); details: for Body wt. gain / Granulation tissue Dry wt. / Granulation tissue Dry wt. Inhibition / Granulation tissue Wet wt. / Granulation tissue Wet wt. Inhibition / Thymus wt.: Table IV
Description: The test compound was dissolved in acetone and aliquots of varying concentrations were injected into cotton pellets. The pellets were dried and then one pellet was implanted beneath the skin of each test rat. Six days later, the animals were sacrificed and the granulation tissue (granuloma) which formed in and around the implanted pellet was removed, dried and weighed. In addition, the thymi and adrenals were removed and weighed.

thymus weight in rats = test: Thymus inhibition testing (subcutaneous administration)
Description: Several further studies were undertaken to determine the effects of selected compounds of the invention on thymi weights in rats when the drugs were systemically administered. In each of these studies, male Sprague-Dawley rats were used. […] On the fifth day (48 hours following the last treatment), the animals were sacrificed and the thymi weights were recorded. […] It is evident that the higher the inhibition of thymus activity at a given dose, the more toxic the compound is.

[2] = system: blank cotton pellet granuloma; test: Blank cotton pellet granuloma assay (intravenous administration); details: 3 days
Description: A further test was undertaken to determine the thymolytic activity of a representative species of the invention as compared to betamethasone 17-valerate. In this test, the drugs were administered intravenously to rats, while using a blank cotton pellet granuloma assay. Male Sprague-Dawley rats, each weighing about 185 grams (166-196 grams), were used. Two cotton pellets, each weighing 30 mg and containing no test compounds, were sterilized and implanted sub-cutaneously into the back of each test animal. This day was considered day 0 of implantation. Test compounds suspended in 0.8% polysorbate 80 were administered intravenously once daily for 3 consecutive days beginning with day 1. On day 5, the animals were sacrificed and the two pellets, with their respective granulomas, were removed, dried overnight in an oven at 50° C. and weighed (dry granuloma weight). The thymi and final body weights were also recorded.
In the foregoing tests, there was determined the deactivation of the representative species of the present soft steroids administered intravenously to rats. […] The test compounds were administered intravenously to rats to check the test compounds also for systemic anti-inflammatory activity as compared to betamethasone 17-valerate. The test compounds were found lower in the inhibition of granulation tissue formation and also in the thymus involution activity than betamethasone 17-valerate. From the results of the tests, it is presumed that the compounds which will not be readily subjected to metabolism (deactivation) have a systemic anti-inflammatory activity, as is the case with betamethasone 17-valerate.

[3] = chloromethyl 11β-hydroxy-17α-isopropoxycarbonyloxyandrost-4-en-3-one-17β-carboxylate = 1
[4] = Table VII, 1 mg/kg/day s.c., three days
[5] = Table VII, 3 mg/kg/day s.c., three days
[6] = Table VII, 10 mg/kg/day s.c., three days
[7] = Table VII, 30 mg/kg/day s.c., three days
[8] = Table VIII, 10 mg/kg/day s.c., three days
[9] = Table X, betamethasone 17-valerate = 1

Q: What does the source list for CCOC(=O)O[C@]1(C(=O)OCCl)[C@H](C)C[C@H]2[C@@H]3CCC4=CC(=O)C=C[C@]4(C)[C@@]3(F)[C@@H](O)C[C@@]21C [chloromethyl 17α-ethoxycarbonyloxy-9α-fluoro-11β-hydroxy-16α-methylandrosta-1,4-dien-3-one-17β-carboxylate]?
A: Body wt. gain ([1]; 0.3 μg/pellet): 32.4 ± 1.1 g; Granulation tissue Dry wt. ([1]; 0.3 μg/pellet): 57.3 ± 5.0 mg; Granulation tissue Dry wt. Inhibition ([1]; 0.3 μg/pellet): 29.4%; Granulation tissue Wet wt. ([1]; 0.3 μg/pellet): 472 ± 23 mg; Granulation tissue Wet wt. Inhibition ([1]; 0.3 μg/pellet): 16.6%; Thymus wt. ([1]; 0.3 μg/pellet): 492 ± 26 mg; Body wt. gain ([1]; 1 μg/pellet): 37.3 ± 1.5 g; Granulation tissue Dry wt. ([1]; 1 μg/pellet): 36.4 ± 2.4 mg; Granulation tissue Dry wt. Inhibition ([1]; 1 μg/pellet): 55.2%; Granulation tissue Wet wt. ([1]; 1 μg/pellet): 388 ± 31 mg; Granulation tissue Wet wt. Inhibition ([1]; 1 μg/pellet): 31.4%; Thymus wt. ([1]; 1 μg/pellet): 519 ± 22 mg; Body wt. gain ([1]; 3 μg/pellet): 34.3 ± 1.1 g; Granulation tissue Dry wt. ([1]; 3 μg/pellet): 27.4 ± 2.9 mg; Granulation tissue Dry wt. Inhibition ([1]; 3 μg/pellet): 66.3%; Granulation tissue Wet wt. ([1]; 3 μg/pellet): 331 ± 11 mg; Granulation tissue Wet wt. Inhibition ([1]; 3 μg/pellet): 41.5%; Thymus wt. ([1]; 3 μg/pellet): 472 ± 16 mg; Body wt. gain ([1]; 10 μg/pellet): 36.1 ± 1.1 g; Granulation tissue Dry wt. ([1]; 10 μg/pellet): 22.1 ± 3.6 mg; Granulation tissue Dry wt. Inhibition ([1]; 10 μg/pellet): 72.8%; Granulation tissue Wet wt. ([1]; 10 μg/pellet): 313 ± 13 mg; Granulation tissue Wet wt. Inhibition ([1]; 10 μg/pellet): 44.7%; Thymus wt. ([1]; 10 μg/pellet): 521 ± 35 mg; Body wt. gain ([1]; 30 μg/pellet): 31.3 ± 1.4 g; Granulation tissue Dry wt. ([1]; 30 μg/pellet): 20.4 ± 2.4 mg; Granulation tissue Dry wt. Inhibition ([1]; 30 μg/pellet): 74.9%; Granulation tissue Wet wt. ([1]; 30 μg/pellet): 290 ± 10 mg; Granulation tissue Wet wt. Inhibition ([1]; 30 μg/pellet): 48.8%; Thymus wt. ([1]; 30 μg/pellet): 505 ± 26 mg; ED50 ([1]; Table XII, anti-inflammatory effect in cotton pellet granuloma): 1.07 μg/pellet; Relative potency (ED40) [1, 3]: 653; Relative potency (ED60) [1, 3]: 283; ED40 ([1]; dose causing 40% inhibition of granulation tissue weight): 0.47 μg/pellet; ED50 ([1]; dose causing 50% inhibition of granulation tissue weight): 1.07 μg/pellet; ED60 ([1]; dose causing 60% inhibition of granulation tissue weight): 2.44 μg/pellet; Body weight gain (thymus weight in rats; [4]): 13.1 ± 1.0 g; Thymus (thymus weight in rats; [4]): 428 ± 20 mg; Thymus Inhibition (thymus weight in rats; [4]): 9.1%; Body weight gain (thymus weight in rats; [5]): 12.7 ± 1.4 g; Thymus (thymus weight in rats; [5]): 412 ± 20 mg; Thymus Inhibition (thymus weight in rats; [5]): 12.5%; Body weight gain (thymus weight in rats; [6]): 9.7 ± 1.3 g; Thymus (thymus weight in rats; [6]): 405 ± 21 mg; Thymus Inhibition (thymus weight in rats; [6]): 14.0%; Body weight gain (thymus weight in rats; [7]): 4.4 ± 0.7 g; Thymus (thymus weight in rats; [7]): 292 ± 15 mg; Thymus Inhibition (thymus weight in rats; [7]): 38.0%; Body weight gain (thymus weight in rats; [8]): 14.2 ± 1.9 g; Thymus wt. (thymus weight in rats; [8]): 533 ± 31 mg; Thymus wt. Inhibition (thymus weight in rats; [8]): 3.1%; Relative Potency (TED40) (thymus weight in rats; [9]): 0.0058; Relative Potency (TED50) (thymus weight in rats; [9]): <0.011; TED40 (thymus weight in rats; Table X, dose required to achieve 40% inhibition of thymi weight, subcutaneous): 51.5 mg; TED50 (thymus weight in rats; Table X, dose required to achieve 50% inhibition of thymi weight, subcutaneous): <51.5^a mg; Relative Potency (TED40) (thymus weight in rats; Table XII, hydrocortisone 17-butyrate = 1): 1/40; TED40 (thymus weight in rats; Table XII, thymus inhibition effect, subcutaneously): 51.5 mg/kg; Body wt. gain ([2]; 1 mg/kg/day i.v.): 14.1 ± 1.4 g; Dry granuloma wt. ([2]; 1 mg/kg/day i.v.): 50.1 ± 6.9 mg; Dry granuloma wt. Inhibition ([2]; 1 mg/kg/day i.v.): 20.1%; Thymus wt. ([2]; 1 mg/kg/day i.v.): 373 ± 25 mg; Thymus wt. Decrease ([2]; 1 mg/kg/day i.v.): 11.6%; Body wt. gain ([2]; 3 mg/kg/day i.v.): 14.2 ± 1.3 g; Dry granuloma wt. ([2]; 3 mg/kg/day i.v.): 49.3 ± 5.1 mg; Dry granuloma wt. Inhibition ([2]; 3 mg/kg/day i.v.): 21.4%; Thymus wt. ([2]; 3 mg/kg/day i.v.): 338 ± 20 mg; Thymus wt. Decrease ([2]; 3 mg/kg/day i.v.): 19.9%; Body wt. gain ([2]; 10 mg/kg/day i.v.): 0.3 ± 1.7 g; Dry granuloma wt. ([2]; 10 mg/kg/day i.v.): 45.7 ± 4.6 mg; Dry granuloma wt. Inhibition ([2]; 10 mg/kg/day i.v.): 27.1%; Thymus wt. ([2]; 10 mg/kg/day i.v.): 209 ± 31 mg; Thymus wt. Decrease ([2]; 10 mg/kg/day i.v.): 50.5%; Body wt. gain ([2]; 30 mg/kg/day i.v.): -18.5 ± 2.3 g; Dry granuloma wt. ([2]; 30 mg/kg/day i.v.): 32.7 ± 3.0 mg; Dry granuloma wt. Inhibition ([2]; 30 mg/kg/day i.v.): 47.8%; Thymus wt. ([2]; 30 mg/kg/day i.v.): 71 ± 4 mg; Thymus wt. Decrease ([2]; 30 mg/kg/day i.v.): 83.2%
